What was measured:
[1] = test system: HeLa cells; experiment: Radioluminescence microscopy of FDG uptake in HeLa cells on scintillator plate; type: cell-based; settings: HeLa cells fasted 2 h, 400 μCi FDG 20 min 37° C., 20 minute exposure
Procedure: To visualize the uptake of radiotracer at the microscopic level, cells were cultured directly on a scintillating plate made of a material that converts incident beta radiation into optical photons via radioluminescence. In these experiments, scintillation plates were used with dimensions 10 mm×10 mm×0.5 mm that were made of CdWO4, a dense, high-Z, non-hygroscopic material, with both sides polished to allow for concurrent optical imaging (MTI Corp.). In one experiment, HeLa cells were seeded and cultured on the scintillating plate, immersed in cell culture medium (Dulbecco's Modified Eagle Medium containing 10% fetal calf serum) for 12-18 hours. After the cells had adhered to the surface of the scintillator plate and divided adequately, they were fasted for two hours in glucose-free cell medium and incubated for 20 minutes at 37° C. with 400 μCi of ^18F-fluorodeoxyglucose (FDG). […]
Radioluminescence images were taken with an EM gain of 251/1200, the excitation shutter closed, and the emission shutter open. […] Then, in luminescence mode, the image sharpness was optimized by varying the focal distance while acquiring 5 minute-exposure images. […]

[2] = test system: MDA-MB-231 human breast cancer cells; experiment: Single-cell FDG uptake at a fixed time-point, radioluminescence and fluorescence microscopy; type: cell-based; settings: glucose-deprived 1 hour
Text: In this illustration, the common radiotracer [^18F]fluorodeoxyglucose (FDG) was used. […] The radioluminescence microscopy set-up consisted of cells adhering to a 100 μm-thin CdWO4 scintillator plate that was immersed in a glass-bottom dish filled with cell culture medium as shown schematically in FIG. 2. The dish was imaged using an inverted microscope fitted with a high-NA objective and an electron-multiplying charge-coupled device (EM-CCD).
Brightfield images were acquired with no EM gain, a neutral-density filter on the excitation, and the emission shutter open. […] The brightfield mode was used to set the microscope into focus. […] For fluorescence microscopy, a 460 nm/535 nm filter set for 2-NBDG imaging (Chroma, D460/50x and D535/40m) and a 540 nm/600 nm filter set for RFP imaging (Chroma, HQ540/40x and HQ600/50m) were used.
One side of the scintillator plate was coated with fibronectin (10 μg/ml) to allow the cells to attach. After the plate had dried, the cells were seeded by placing a 50 μl drop containing 10^4 cells on to the fibronectin-coated plate.
After washing the cells, brightfield, radioluminescence and fluorescence micrographs were acquired.
To measure radiotracer uptake in single cells, circular regions of interest (ROI's; diameter, 24 μm) were manually placed on the cells using the brightfield micrograph. […] The same procedure was also applied to fluorescence micrographs.

[3] = test system: breast cancer cells (MDA-MB-231); experiment: Single-cell FDG uptake and efflux over time (pharmacokinetic study), serial radioluminescence imaging; type: cell-based, human
Procedure: To investigate the utility of radioluminescence microscopy for single-cell pharmacokinetic studies, FDG uptake, FDG efflux and FDG withdrawal conditions were analyzed. FDG uptake in breast cancer cells (MDA-MB-231) over time was monitored by depriving cells of glucose for 1 hour and then adding 5 μCi of FDG to the medium. Serial brightfield and radioluminescence images were acquired every 6 minutes for a period of 8 hours.
To monitor FDG efflux, breast cancer cells (MDA-MB-231) were subjected to conditions known to minimize FDG influx, i.e. thorough competition from glucose and withdrawal of FDG.
The influx of FDG into glucose-deprived cells was described using the following two-tissue compartmental kinetic model:
where Ca is the extracellular FDG concentration (assumed to be fixed); C(t) is the time-dependent intracellular FDG concentration (including free FDG and bound FDG-6-P); and K1, k2 and k3 are the rate constants representing influx, efflux, and irreversible phosphorylation of FDG, respectively. Fort>>1/(k2+k3, the intracellular and extracellular compartments are in equilibrium, and the intracellular concentration of FDG increases linearly with time due to irreversible trapping of FDG. The parameters of this linear rise (i.e. slope and intercept) are the Patlak coefficients. The slope of the linear rise is the product of two terms, namely K1 the influx rate, and k3/(k2+k3) is the fraction of the intracellular FDG irreversibly metabolized. A non-linear weighted least-squares fitting was used to estimate the parameters of the model. The fitting weights were adjusted to decrease the contribution of later time points, which have higher noise due to radioactive decay.
A mathematical model was also derived to represent FDG efflux from a cell. The model assumed that (1) following withdrawal of FDG, the concentration of FDG in the cell culture medium remained negligible due to the large extracellular volume (0.2 ml), and (2) k3>>k4. Under these assumptions, FDG concentration within a single cell can be described by the sum of a slow and a fast exponential decay.
Efflux of FDG from cells was modeled using a two-tissue compartmental model:
where a1 and a2 are positive coefficients that depend on the initial conditions, and λ1 and λ2 are the eigenvalues of the differential system of equations describing transport of FDG between compartments. The rate constant k4 which models the possible dephosphorylation of FDG-6-phosphate (FDG-6-P) was included in this model but assumed to be much smaller than k3. Furthermore, due to the large extracellular volume (0.2 ml), the concentration of FDG in the cell culture medium was assumed to remain negligible after withdrawal of FDG. Under these assumptions, the eigenvalues can be approximated as
These rate parameters were estimated by fitting the efflux model to the measured time-activity curves. For cells for which the solution of the fit yielded λ1≈λ2 or λ2<1 min^−1, the efflux curve was fitted with a single exponential function. In the special case of irreversible trapping (k4=0), the model is described by a single exponential decay with rate: λ1=k2+k3. The model was in agreement with radioluminescence measurements of single cells, confirming that two processes are occurring concurrently at different rates. Unbound FDG contained within the cell quickly diffuses out following concentration gradients, whereas FDG-6-phosphate (FDG-6-P) requires slow dephosphorylation to cross the cell membrane.

[4] = test system: HeLa cells transduced with HSV1-ttk; experiment: FHBG accumulation in HeLa cells transduced with mrfp1/HSV1-ttk reporter, radioluminescence and fluorescence microscopy; type: cell-based, human; settings: 300 μCi 18F-FHBG 2 hours
Text: To further exploit the microscope's ability to visualize both fluorescent and radioactive probe distributions, human cervical cancer cells (HeLa) were transduced with a dual fusion reporter vector, comprising reporter genes encoding the monomeric red fluorescent protein (mrfp1) and the mutant herpes simplex virus type 1 truncated thymidine kinase (HSV1-ttk). HSV1-ttk can selectively metabolize and trap radiolabeled substrates such as FHBG. Substrates such as 9-(4-[^18F]Fluoro-3hydroxymethylbutyl) guanine (^18F-FHBG) have low affinity for mammalian thymidine kinase (TK) enzymes but high affinity for HSV1-TK. FHBG is selectively metabolized and trapped within transduced cells so it can be used to image cell trafficking in living subjects with PET.
PCR amplification and standard cloning techniques were used to insert the mrfp and ttk genes from plasmid pCONA3.1-CMV-hrl-mrfp-ttk. Lentiviral EF1-gfp vectors were obtained and the gfp fragment was removed from the vector and replaced by mrfp-ttk. For PCR amplifications, different 5′ and 3′ end primers were used to generate the fusion vector (EF1-mrfp-ttk).
HeLa human cervical cancer and 293T human embryonic kidney cells were acquired and cultured in high-glucose Dulbecco's modified eagle medium supplemented with 10% fetal bovine serum. 293T cells were used to produce the lentivirus following standard procedures. HeLa cells were transduced with concentrated lentivirus for 48 hours and then trypsinized and seeded directly onto a scintillator plate coated with fibronectin (10 μg/ml), one day before imaging.
For imaging of cell transduction with FHBG and RFP, transduced HeLa cells were incubated for 2 hours with 300 μCi of ^18F-FHBG.
In transduced cells, accumulation of FHBG was coincident with expression of mrfp1 measured by fluorescence microscopy. A brightfield image (FIG. 5A), a radioluminescence image (FIG. 5B) and a fluorescence image (FIG. 5C) were obtained from the same field. It was seen that 88% of the cells visible on the brightfield image (217/245) were clearly distinguishable both on radioluminescence (FIG. 5B) and fluorescence images (FIG. 5C), while only 9% (21/245) could not be seen on either image. The remaining 7 cells were excluded from the analysis due to ambiguous radioluminescence intensity caused by the proximity to a strongly positive cell.

[5] = test system: wild-type HeLa cells; experiment: FHBG uptake in wild-type HeLa cells, radioluminescence microscopy; type: cell-based, human; settings: FHBG 300 μCi, 2 h
Text: Generally, radioluminescence signals for FHBG-positive and FHBG-negative cells were more distinctly separated than fluorescence signals for RFP-positive and RFP-negative cells.

[6] = test system: mammalian thymidine kinase (TK) enzymes; settings: background statement; cited from earlier work
[7] = test system: HSV1-TK (Human herpesvirus 1); settings: background statement; cited from earlier work
Sequence of HSV1-TK (Human herpesvirus 1) (P0DTH5 whole entry): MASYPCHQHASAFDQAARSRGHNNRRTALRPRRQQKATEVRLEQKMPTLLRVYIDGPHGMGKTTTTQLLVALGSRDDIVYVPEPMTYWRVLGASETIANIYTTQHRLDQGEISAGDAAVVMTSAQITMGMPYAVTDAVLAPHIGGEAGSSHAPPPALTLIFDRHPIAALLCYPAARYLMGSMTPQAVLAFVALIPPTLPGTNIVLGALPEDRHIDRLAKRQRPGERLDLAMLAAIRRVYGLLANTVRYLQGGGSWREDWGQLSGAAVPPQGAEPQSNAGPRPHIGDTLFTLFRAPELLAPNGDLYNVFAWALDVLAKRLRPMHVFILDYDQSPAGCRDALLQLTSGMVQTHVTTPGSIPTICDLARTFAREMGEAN

Row | SMILES | colocalization between cell outline (brightfield) and radioluminescence intensity [1] | cell-to-cell variation of radioluminescence intensity (FDG uptake) ([2]; FDG 400 μCi 1 hour 37° C.) | correlation (r) of FDG uptake with uptake of 2-NBDG in single cells ([2]; FDG 400 μCi + 2-NBDG 100 μM 1 hour 37° C., P<10^−5) | cell radioactivity after withdrawal of FDG from the media ([3]; cells previously incubated with FDG 400 μCi, 1 hour) | cell radioactivity after addition of glucose to the medium ([3]; glucose 25 mM added at 2 hours) | time at which the majority of cells stopped accumulating FDG ([3]; glucose-deprived 1 hour, 5 μCi FDG in medium) | time course of cell radioactivity (FDG uptake) ([3]; glucose-deprived 1 hour, 5 μCi FDG, images every 6 minutes for 8 hours) | variation of Patlak coefficients across cells ([3]; two-tissue compartmental kinetic model of FDG influx) | radiotracer uptake pattern in transduced cells ([4]; 100× magnification) | cells that could not be seen on either radioluminescence or fluorescence image ([4]; 21/245 cells) [%] | cells visible on brightfield clearly distinguishable both on radioluminescence and fluorescence images ([4]; 217/245 cells) [%] | correlation (r) of RFP fluorescence intensity with FHBG radioluminescence intensity ([4]; transduced HeLa cells) | radioluminescence signal in wild-type HeLa cells [5] | affinity for mammalian thymidine kinase (TK) enzymes [6] | affinity for HSV1-TK [7]
1 | OC[C@H]1OC(O)[C@H]([18F])[C@@H](O)[C@@H]1O (stereo partly drawn) [FDG, ^18F-fluorodeoxyglucose] | good colocalization | varied significantly from cell to cell | 0.74 | fast decrease in cell radioactivity | decline in cell radioactivity | approximately 3 hours | linear increase in radioactivity, followed by a plateau and a slow decrease after 3 hours | Large variations |  |  |  |  |  |  | 
2 | Nc1nc2c(ncn2CCC(CO)C[18F])c(=O)[nH]1 (stereo not drawn) [FHBG, 9-(4-[^18F]-fluoro-3-hydroxy-methylbutyl) guanine] |  |  |  |  |  |  |  |  | focal radiotracer uptake | 9 | 88 | 0.34 | no measurable radioluminescence signal | low affinity | high affinity
